In patent US10517889B2, “Modulators of SMAD7 expression” (Ionis Pharmaceuticals, Inc., priority 2017, dated 2019):
Strand notation (5' to 3'): a small letter for the sugar, then the base; units joined by * are phosphorothioate-linked, units joined directly phosphodiester-linked; [ ] holds rarer units or linkages, { } end groups; capitals alone tell only the bases. e = 2'-O-(2-methoxyethyl) (MOE); [5mC] = 5-methylcytosine; d = 2'-deoxy (DNA)

Columns and labels:
Type in all cases: cell-based
human SMAD7 mRNA [1] = experiment: Dose-dependent inhibition of human SMAD7 mRNA expression in Hep3B cells (Example 3, Study 1 and 2); settings: electroporation; for % inhibition of SMAD7 mRNA expression: approximately 16 hours
Method in brief: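 Hep3B cells, 20,000 per well, electroporated with antisense oligonucleotide at 0.31, 1.25, 5.00 or 20.00 μM (first series) or 0.74, 2.22, 6.67 or 20.00 μM (second series). After ~16 h, SMAD7 mRNA measured by RT-qPCR (RTS5062), normalised to RIBOGREEN total RNA. Percent inhibition vs untreated cells; IC50 derived.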

human SMAD7 mRNA [2] = experiment: Antisense inhibition of human SMAD7 mRNA expression in Hep3B cells by 5-10-5 MOE gapmers, single concentration, electroporation, RT-PCR (Example 1, Study 1 and 2)
Method in brief: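 Readout is percent SMAD7 mRNA inhibition versus untreated cells, measured by qRT-PCR (RTS5062) and corrected for total RNA by RIBOGREEN. Oligonucleotide, 5,000 nM or 15,000 nM, was delivered by electroporation into Hep3B cells at 20,000 per well. RNA was collected about 24 h later.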

human SMAD7 mRNA [3] = experiment: Antisense inhibition of human SMAD7 mRNA expression in Hep3B cells by 3-10-3 cEt gapmers, 10,000 nM, electroporation (Example 2); settings: Hep3B cells, electroporation with 10,000 nM antisense oligonucleotide, approximately 24 hours, primer probe set RTS5062, relative to untreated control cells
Method in brief: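 qRT-PCR (RTS5062) of SMAD7 mRNA, normalised to RIBOGREEN total RNA, gave percent inhibition relative to untreated controls. Hep3B cells at 20,000 per well received 10,000 nM oligonucleotide by electroporation, with ~24 h treatment.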

[4] = 312.5 nM, Study 1, relative to untreated control cells
[5] = electroporation, 15,000 nM, approximately 24 hours, relative to untreated control cells, gapmers targeting SEQ ID NO: 1 and 2
[6] = electroporation, 15,000 nM antisense oligonucleotide (Study 2), 5-10-5 MOE gapmers targeting SEQ ID NO: 1 and 2

Row | Substance | % inhibition of SMAD7 mRNA expression (human SMAD7 mRNA [1]; [4]) [%] | % inhibition of SMAD7 mRNA expression (human SMAD7 mRNA [1]; 1250.0 nM, Study 1) [%] | % inhibition of SMAD7 mRNA expression (human SMAD7 mRNA [1]; 5000.0 nM, Study 1) [%] | % inhibition of SMAD7 mRNA expression (human SMAD7 mRNA [1]; 20000.0 nM, Study 1) [%] | IC50 (human SMAD7 mRNA [1]; Study 1 (312.5-20000 nM)) [µM] | % Inhibition (human SMAD7 mRNA [2]; Study 2, electroporation with 15,000 nM antisense oligonucleotide, 5-10-5 MOE gapmers targeting SEQ ID NO: 1 and 2) [%] | % inhibition of SMAD7 mRNA expression (human SMAD7 mRNA [2]; [5]) [%] | % inhibition of SMAD7 mRNA expression (human SMAD7 mRNA [2]; [6]) [%] | % inhibition of SMAD7 mRNA expression (human SMAD7 mRNA [1]; 740 nM, Study 2, relative to untreated control cells) [%] | % inhibition of SMAD7 mRNA expression (human SMAD7 mRNA [1]; 2220 nM, Study 2) [%] | % inhibition of SMAD7 mRNA expression (human SMAD7 mRNA [1]; 6670.0 nM, Study 2) [%] | % inhibition of SMAD7 mRNA expression (human SMAD7 mRNA [1]; 20000.0 nM, Study 2) [%] | IC50 (human SMAD7 mRNA [1]; Study 2 (740-20000 nM)) [µM] | % Inhibition (human SMAD7 mRNA [3]) [%] | % inhibition of SMAD7 mRNA expression (human SMAD7 mRNA [3]) [%] | % Inhibition of SMAD7 mRNA (human SMAD7 mRNA [2]; electroporation with 15,000 nM antisense oligonucleotide (Study 2), 5-10-5 MOE gapmers targeting SEQ ID NO: 1 and 2) [%]
1 | 771416 (e[5mC]*e[5mC]*e[5mC]*e[5mC]*eA*dT*dG*d[5mC]*dG*d[5mC]*dT*d[5mC]*dG*dG*d[5mC]*eT*eG*eT*e[5mC]*e[5mC]; antisense) [compound 771416] | 0 | 3 | 19 | 35 | > 20 | 58 | – | – | – | – | – | – | – | – | – | –
2 | 771509 (antisense eG*eG*e[5mC]*e[5mC]*eT*dG*d[5mC]*dT*d[5mC]*dA*dG*d[5mC]*dT*d[5mC]*dA*e[5mC]*eG*e[5mC]*eT*e[5mC]) [compound 771509] | 0 | 0 | 13 | 47 | > 20 | – | 65 | – | – | – | – | – | – | – | – | –
3 | 771885 (antisense e[5mC]*eA*eA*eG*eT*d[5mC]*dT*d[5mC]*dT*dT*dA*d[5mC]*d[5mC]*dT*d[5mC]*eA*e[5mC]*e[5mC]*e[5mC]*eA) [compound 771885] | 0 | 4 | 20 | 45 | > 20 | – | 60 | – | – | – | – | – | – | – | – | –
4 | 771937 (antisense eT*e[5mC]*e[5mC]*eA*eG*dT*dG*d[5mC]*dT*dT*dG*dT*dG*d[5mC]*dA*eT*eG*eT*eG*e[5mC]) [compound 771937] | 0 | 0 | 4 | 41 | > 20 | – | – | 52 | – | – | – | – | – | – | – | –
5 | 771576 (antisense eG*eG*eG*e[5mC]*eA*dG*dG*dA*dG*dA*dG*dA*d[5mC]*dA*d[5mC]*e[5mC]*eG*e[5mC]*eT*eT) [compound 771576] | 9 | 24 | 55 | 75 | 4 | – | – | 28 | 0 | 23 | 23 | 22 | > 20 | 49 | 50 | 64
